One molecule from publication PMC3634016, “The Calmodulin-Binding, Short Linear Motif, NSCaTE Is Conserved in L-Type Channel Ancestors of Vertebrate Cav1.2 and Cav1.3 Channels” (PLoS ONE, 2013) can be followed below.

For the test, the target named is T1, Ca^2+-CaM (wild type rat calmodulin) (Rattus norvegicus, UniProt P0DP29).
T1 construct: made in house
Put plainly: Isothermal titration calorimetry, peptide into Ca2+-CaM. The format is binding. To be noted: peptide titrated into Ca2+-CaM alone; 25 mM Tris-Cl pH 7.5, 75 mM NaCl, 0.5 mM CaCl2; 25°C; one-set-of-sites model; SEM printed separately in figure.

Experimental: All peptides were resuspended in mili-Q deionized water to 1 mM stocks and stored at −80°C in small aliquots.
All ITC recordings were performed on a Microcal ITC200 from Microcal (Northampton, MA) at 25°C. In all experiments the buffer used was 25 mM Tris-Cl pH 7.5, 75 mM NaCl and 0.5 mM CaCl2 and was identical between cell and syringe. […] Data analysis was performed using Origin ITC200 Origin70 module with pre-loaded fitting equations for one- and two-sites models.

The molecule `CC[C@H](C)[C@H](NC(=O)[C@H](C)NC(=O)[C@H](C)NC(=O)[C@H](CCC(N)=O)NC(=O)[C@H](Cc1c[nH]c2ccccc12)NC(=O)[C@@H](N)CO)C(=O)N[C@@H](CC(=O)O)C(=O)N[C@@H](C)C(=O)N[C@@H](C)C(=O)N[C@@H](CCCNC(=N)N)C(=O)N[C@@H](CCC(N)=O)C(=O)N[C@@H](C)C(=O)N[C@@H](CCCCN)C(=O)N[C@@H](CC(C)C)C(=O)N[C@@H](CCSC)C(=O)NCC(=O)N[C@@H](CO)C(=O)O` [NSCaTECav1.2] registered a Kd of 0.83 µM.
